Our source for the IC50 values is patent publication US8399459B2, “1,4 oxazines as BACE1 and/or BACE2 inhibitors” (Hoffmann-La Roche Inc., priority 2011, dated 2013).

pIC50: −log10 of the molar value.

Type in all cases: in vitro ADME
Test [1] deals with T1, CYP3A4 (Homo sapiens, UniProt P08684).
T1 construct: 0.2 mg/ml pooled human liver microsomes; from tissue; host or cells: pooled human liver microsomes
Kind of test: CYP inhibition assay, human liver microsomes, midazolam 1′hydroxylase. The note with it: pooled human liver microsomes, read-out: CYP IC50 3A4. Here is the method: (§1) Inhibition of cytochromes P450 (CYPs) 2C9, 2D6 and 3A4 was assessed using human liver microsomes and CYP-selective substrate metabolism reactions. 50 μl incubations were made up containing (finally) 0.2 mg/ml pooled human liver microsomes, 5 μM substrate (diclofenac for CYP2C9 [4′hydroxylase], dextromethorphan for CYP2D6 [O-demethylase] or midazolam for CYP3A4 [1′hydroxylase]), 0.25 μL DMSO containing test inhibitor and NADPH regenerating system. Test inhibitor concentrations of 50, 16.7, 5.6, 1.9, 0.6 and 0.2 μM were assessed in singlicate. Incubations were prewarmed to 37° C. for 10 minutes before initiation by addition of NADPH regenerating system. Incubations were quenched after 5 minutes (20 minutes for dextromethorphan) by addition of 50 μl cold acetonitrile containing 20 ng/ml 4-OH-diclofenac-13C6, 20 ng/mL dextrorphan-D3 and 20 ng/mL 1-OH-midazolam-D4. Quenched incubates were stored at −20° C. for at least 1 hour before centrifugation (20,000×g, 20 minutes). Supernatants were removed and diluted 1:1 with water prior to analysis using a RapidFire sample injector system and API4000 mass spectrometer. Peak areas for substrate, metabolite and stable-labelled metabolite standard were determined using MS/MS. The peak area ratios between the metabolite generated by the enzymatic reaction and the internal standard were used in subsequent calculations. The percentage of (DMSO) control activity was calculated for each incubate and IC50 values estimated by non-linear regression. Sulfaphenazole, quinidine or ketoconazole were tested in each CYP2C9, CYP2D6 or CYP3A4 inhibition experiment, respectively, to ensure assay sensitivity and reproducibility. (Validated assays for human cytochrome P450 activities, R. L. Walsky and R. S. Obach, Drug Metabolism and Disposition 32: 647-660, 2004. and S. Fowler and H. Zhang, The AAPS Journal, Vol. 10, No. 2, 410-424, 2008.)
(In general: Liver microsomes are vesicles of endoplasmic reticulum, rich in cytochrome P450 enzymes.)

The target in test [2] is T2, CYP2D6 (Homo sapiens, UniProt P10635).
T2 construct: 0.2 mg/ml pooled human liver microsomes; from tissue; host or cells: pooled human liver microsomes
T2 sequence (P10635 whole entry): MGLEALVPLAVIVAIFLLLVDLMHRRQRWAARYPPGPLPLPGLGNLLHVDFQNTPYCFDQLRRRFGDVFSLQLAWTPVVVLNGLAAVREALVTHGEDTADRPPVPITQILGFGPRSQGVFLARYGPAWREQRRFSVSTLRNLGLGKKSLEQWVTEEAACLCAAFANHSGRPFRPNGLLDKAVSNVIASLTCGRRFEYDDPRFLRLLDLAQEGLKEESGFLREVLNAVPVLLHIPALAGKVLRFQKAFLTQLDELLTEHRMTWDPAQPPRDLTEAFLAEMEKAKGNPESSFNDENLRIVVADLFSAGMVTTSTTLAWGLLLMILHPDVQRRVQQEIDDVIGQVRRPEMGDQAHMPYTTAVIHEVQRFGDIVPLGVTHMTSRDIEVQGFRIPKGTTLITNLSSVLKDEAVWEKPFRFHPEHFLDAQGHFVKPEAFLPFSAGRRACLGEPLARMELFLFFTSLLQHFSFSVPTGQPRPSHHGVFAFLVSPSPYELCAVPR
Kind of test: CYP inhibition assay, human liver microsomes, dextromethorphan O-demethylase. The note with it: pooled human liver microsomes, read-out: CYP IC50 2D6. Here is the method:
as §1

For test [3], the target named is T3, CYP2C9 (Homo sapiens, UniProt P11712).
T3 construct: 0.2 mg/ml pooled human liver microsomes; from tissue; host or cells: pooled human liver microsomes
T3 sequence (P11712 whole entry): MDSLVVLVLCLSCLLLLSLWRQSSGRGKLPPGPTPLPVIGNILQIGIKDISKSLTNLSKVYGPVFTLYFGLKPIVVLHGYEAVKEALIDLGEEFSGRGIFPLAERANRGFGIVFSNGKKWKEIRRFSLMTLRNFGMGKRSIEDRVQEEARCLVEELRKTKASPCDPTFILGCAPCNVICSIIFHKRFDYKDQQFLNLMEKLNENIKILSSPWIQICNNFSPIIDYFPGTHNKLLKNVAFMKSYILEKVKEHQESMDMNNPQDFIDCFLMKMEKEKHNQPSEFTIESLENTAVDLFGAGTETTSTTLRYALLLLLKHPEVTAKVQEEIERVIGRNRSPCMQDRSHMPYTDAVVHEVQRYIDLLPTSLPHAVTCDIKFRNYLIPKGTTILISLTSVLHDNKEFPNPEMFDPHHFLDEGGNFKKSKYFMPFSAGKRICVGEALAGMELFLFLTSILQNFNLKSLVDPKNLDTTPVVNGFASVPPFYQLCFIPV
Kind of test: CYP inhibition assay, human liver microsomes, diclofenac 4′hydroxylase. Conditions: pooled human liver microsomes, read-out: CYP IC50 2C9. On the procedure: as §1

T1 sequence (P08684 whole entry): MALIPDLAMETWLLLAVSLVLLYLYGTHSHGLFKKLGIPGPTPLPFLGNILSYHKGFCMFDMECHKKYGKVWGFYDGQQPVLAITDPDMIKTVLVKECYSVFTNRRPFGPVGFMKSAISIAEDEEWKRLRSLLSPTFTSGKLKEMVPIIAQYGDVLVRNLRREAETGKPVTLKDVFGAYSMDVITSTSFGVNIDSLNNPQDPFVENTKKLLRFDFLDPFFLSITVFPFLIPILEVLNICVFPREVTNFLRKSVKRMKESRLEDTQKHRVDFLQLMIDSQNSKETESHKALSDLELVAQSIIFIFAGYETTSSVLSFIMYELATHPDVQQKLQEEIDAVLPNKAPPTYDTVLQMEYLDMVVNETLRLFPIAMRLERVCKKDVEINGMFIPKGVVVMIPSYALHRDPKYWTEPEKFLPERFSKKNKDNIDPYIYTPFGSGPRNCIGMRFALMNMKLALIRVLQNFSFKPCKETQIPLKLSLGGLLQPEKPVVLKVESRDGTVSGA

In the case of `CC1(c2cccc(-c3cncnc3)c2)COCC(N)=N1` (stereo not drawn) [Example 35, 5-Methyl-5-(3-pyrimidin-5-yl-phenyl)-5,6-dihydro-2H-[1,4]oxazin-3-ylamine], the pIC50 (as a rule, the IC50 on a negative log10 scale, so that one unit is a factor of ten) is less than 4.30 in test [1], 4.74 in test [2] and less than 4.30 in test [3].
